How the values were obtained:
[1] = target: T1, TTK (Homo sapiens, UniProt P33981); test: Kinase selectivity panel at 1 µM (Eurofins), TTK; type: biochemical; details: read-out: residual enzyme activity TTK
T1 construct: purchased Eurofins Discovery (France)
T1 sequence (P33981 1-857): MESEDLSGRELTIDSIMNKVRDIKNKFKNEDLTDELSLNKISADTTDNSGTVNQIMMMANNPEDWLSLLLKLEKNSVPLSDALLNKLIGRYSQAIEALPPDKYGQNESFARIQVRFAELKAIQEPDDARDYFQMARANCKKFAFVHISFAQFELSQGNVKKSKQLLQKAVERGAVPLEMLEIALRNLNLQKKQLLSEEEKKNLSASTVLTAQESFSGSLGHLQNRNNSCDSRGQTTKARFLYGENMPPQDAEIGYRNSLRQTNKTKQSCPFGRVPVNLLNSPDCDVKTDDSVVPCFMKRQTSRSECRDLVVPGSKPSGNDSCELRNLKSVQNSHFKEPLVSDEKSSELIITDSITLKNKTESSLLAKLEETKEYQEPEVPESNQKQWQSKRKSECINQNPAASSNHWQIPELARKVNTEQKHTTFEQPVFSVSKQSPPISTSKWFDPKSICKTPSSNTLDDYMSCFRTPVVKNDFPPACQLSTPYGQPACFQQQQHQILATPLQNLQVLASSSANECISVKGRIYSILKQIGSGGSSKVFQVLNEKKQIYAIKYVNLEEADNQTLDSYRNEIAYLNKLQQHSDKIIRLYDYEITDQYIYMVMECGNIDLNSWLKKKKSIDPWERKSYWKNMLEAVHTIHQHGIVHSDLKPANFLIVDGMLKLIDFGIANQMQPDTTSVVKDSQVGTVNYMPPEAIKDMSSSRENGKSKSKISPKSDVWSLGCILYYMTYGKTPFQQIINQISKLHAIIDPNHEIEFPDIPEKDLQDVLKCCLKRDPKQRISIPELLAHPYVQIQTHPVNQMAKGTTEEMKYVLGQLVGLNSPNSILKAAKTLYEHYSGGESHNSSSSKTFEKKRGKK
Procedure: Three representative compounds (14d, 14e, and 15a) were profiled in a 1 µM concentration against 30 kinases that were selected as known off-targets of approved CDK4/6 inhibitors. […] Additional sensitive kinases include STK16, EphA1, MEKK2, SRC, and MER (≤10% of residual enzyme activities), which are not targets of the structurally similar CDK4/6 inhibitor, trilaciclib. We also screened compound 15a, an analogue of 14d, bearing isopropyl at position 7 of the purine instead of the methyl group. This change rapidly diminished the potency against CDK4 (dropped to 90% of residual enzyme activity), but the preference for FLT3 remained (1st rank) (Figure 2).
CDK/cyclin complexes and FLT3 kinases were assayed as previously described. Protein kinase selectivity was evaluated at a single concentration (1 µM) by screening against 30 enzymes at Eurofins Discovery (France).

[2] = Stability studied on Caco-2 cells; type: in vitro ADME; details: in comparison with trilaciclib

remaining activity at 1 µM [1] | stability (Caco-2 cells) [2] | Compound
≤ 10% | – | CC(C)n1c(=O)n(C2CCCC2)c2nc(Nc3ccc(N4CCNCC4)cc3)ncc21 [15a, 9-cyclopentyl-7-isopropyl-2-((4-(piperazin-1-yl)phenyl)amino)-7,9-dihydro-8H-purin-8-one]
– | substantially higher stability | Cn1c(=O)n(C2CCCCC2)c2nc(Nc3ccc(N4CCNCC4)cc3)ncc21 [14e]

Source: paper PMC9782245, “Synthesis and Structural Optimization of 2,7,9-Trisubstituted purin-8-ones as FLT3-ITD Inhibitors” (International Journal of Molecular Sciences, 2022)
